Earlier results, collected in patent publication EP4759311A1, “TRPM8 INHIBITORS FOR USE IN THE PREVENTION OR TREATMENT OF JOINT DAMAGE, JOINT DEGENERATION AND/OR JOINT INFLAMMATION CAUSED BY OSTEOARTHRITIS” (Dompé farmaceutici SpA, priority 2024, dated 2026).

Molecular target: TRPM8 (Homo sapiens, UniProt Q7Z2W7)
Settings: TRPM8 inhibitor; no method given

TRPM8, sequence (Q7Z2W7 whole entry, species assumed): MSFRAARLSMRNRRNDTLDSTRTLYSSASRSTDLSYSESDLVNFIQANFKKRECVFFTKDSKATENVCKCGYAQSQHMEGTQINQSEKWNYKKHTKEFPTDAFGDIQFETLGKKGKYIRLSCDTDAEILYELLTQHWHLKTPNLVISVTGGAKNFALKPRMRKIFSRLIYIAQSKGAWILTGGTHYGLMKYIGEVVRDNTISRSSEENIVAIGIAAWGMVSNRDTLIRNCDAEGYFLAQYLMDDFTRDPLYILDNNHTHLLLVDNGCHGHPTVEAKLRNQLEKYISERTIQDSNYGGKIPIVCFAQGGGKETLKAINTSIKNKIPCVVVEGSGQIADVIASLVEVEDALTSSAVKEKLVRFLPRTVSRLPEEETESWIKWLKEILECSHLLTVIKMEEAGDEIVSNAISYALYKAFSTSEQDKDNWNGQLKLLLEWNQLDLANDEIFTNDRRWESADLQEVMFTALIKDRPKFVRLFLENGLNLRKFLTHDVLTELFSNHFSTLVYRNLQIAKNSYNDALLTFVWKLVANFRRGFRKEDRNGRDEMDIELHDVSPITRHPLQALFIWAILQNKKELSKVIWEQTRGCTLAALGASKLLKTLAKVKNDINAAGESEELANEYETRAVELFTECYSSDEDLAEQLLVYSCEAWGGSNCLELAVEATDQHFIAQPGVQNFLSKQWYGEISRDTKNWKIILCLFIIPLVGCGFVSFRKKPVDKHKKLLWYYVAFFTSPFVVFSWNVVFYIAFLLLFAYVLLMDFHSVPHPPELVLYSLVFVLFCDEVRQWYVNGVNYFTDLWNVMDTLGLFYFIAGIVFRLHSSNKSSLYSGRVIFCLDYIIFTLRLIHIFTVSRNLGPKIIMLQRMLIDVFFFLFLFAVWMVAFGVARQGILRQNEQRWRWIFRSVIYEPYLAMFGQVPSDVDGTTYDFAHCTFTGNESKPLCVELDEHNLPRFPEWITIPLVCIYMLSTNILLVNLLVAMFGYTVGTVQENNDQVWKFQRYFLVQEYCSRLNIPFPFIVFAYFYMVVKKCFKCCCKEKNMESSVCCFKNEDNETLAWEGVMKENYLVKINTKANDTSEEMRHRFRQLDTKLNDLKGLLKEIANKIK

IC50 | Structure (SMILES)
5.3 nM | O=C(O)c1ccc(S(=O)(=O)N(Cc2ccc(OC(F)(F)F)cc2)c2ncc(C(F)(F)F)cc2Cl)cc1 [RQ-00203078, 4-[[[3-Chloro-5-(trifluoromethyl)-2-pyridinyl][[4-(trifluoromethoxy)phenyl]methyl]amino]sulfonyl]benzoic acid]
0.2 nM | COC(=O)[C@H](Cc1c[nH]c2ccccc12)N(Cc1ccccc1)Cc1ccccc1 [TRPM8 antagonist 2, N,N-Bis(phenylmethyl)-L-tryptophan methyl ester]
